In data set [1] the test system is Caco-2 human colon adenocarcinoma cells differentiated. In words: Survival of differentiated Caco-2 cells with 5-Fu and EPS, XTT. It is filed as cell-based. To be noted: four days exposure. How it is done:
(§1) The in vitro toxicity of the exopolysaccharide micelles was tested by incubating the micelles with a wide range of cell lines for 4-hour, 8-hour, 72-hour and 96-hour periods. The XTT™ or Alamar Blue™ assays were used to quantify the survival rates in the presence of the exopolysaccharide micelles. The capability of the exopolysaccharide to deliver an active molecule was first tested in vitro using 5-Fluorouracil (5-Fu) as a model active molecule. […] The 5-Fu/exopolysaccharide formulation was incubated with either B16F10 (murine skin melanoma), Caco-2 (human colon adenocarcinoma) or IEC-6 (rat epithelial small intestine) cells over 72-hour to 96-hour. Vital dyes (XTT or Alamar Blue) were added to supernatants for a period of 4 hours. Absorbance values were collected and plotted to evaluate the survival rate of the cells to the treatment.
(§2) Caco-2, IEC-6 and melanocytes B16 cells were cultured in DMEM supplemented with 10% FBS. […] The cells were grown in a CO2 incubator for 4 extra days. Cell survival was assessed with XTT™ according to manufacturers recommendation. […] The data are as follows:
(§3) Percentages of EPS are expressed in (w/v).

The test system of data set [2] is B16F10 murine skin melanoma cells. Nature of the data set: Survival of B16F10 cells with 5-Fu and EPS, XTT. Format: cell-based. To be noted: four days exposure. How it is done:
as §1, §2, §3

In data set [3] the test system is B16 cells. Nature of the data set: Mice grafted i.p. with B16 cells treated with 5 FU/EPS. It is filed as in vivo, Balb/c mice. How it is done: Tumor cells were trypsinized and washed 3 times with PBS. Cells (1×10E6) were injected i.p. to Balb/c mice to induce a cancer in the peritoneal cavity. […] This highlighting again that EPS are not inert and may contribute to the therapeutic index.

The test system of data set [4] is Caco-2 human colon adenocarcinoma cells in proliferation. In words: Survival of Caco-2 cells in proliferation with 5-Fu and EPS, XTT. Format: cell-based. To be noted: four days exposure. How it is done: as §1, §2, §3
(In general: Tetrazolium assays rely on reduction of a dye to a coloured formazan, in cell work by metabolically active cells.)

For data set [5], the system named is IEC-6 rat normal small intestine epithelial cells. In words: Survival of IEC-6 cells with 5-Fu and EPS, Alamar Blue. Format: cell-based. Also noted: unit not given here. To be noted: three days exposure. How it is done:
as §1, §2
[NB073]. Percentages of EPS are expressed in (w/v).

The nature of data set [6]: Fluorescein pharmacokinetic in rats, oral. Format: in vivo, Wistar female rats. Also noted: unit not given here. To be noted: fluorescein 1 mg/kg oral. How it is done: Fluorescein (FL) pharmacolinetic on unfasten Wistar female rats of 200 g and 8 weeks of age. Fluorescein concentration is 1 mg/kg. […] Fluorescein is added to the latter solutions and vortexed. Formulations are fed to the animals with a canula. 200 μl blood samples are collected through the jugular vein every 30 minutes for 2.5 hours. A final bleeding is made at 3.5 h. Plasma are collected immediately after centrifugation (10 min @ 1300 g). Plasma are frozen on dry ice until further analysis: 50 μl of plasma are diluted in 550 μl of saline 0.7% (w/v) and analyzed with a Varian Eclipse Spectrofluorometer (Excitation: 495 nm Emission: 515 nm). Concentrations were determined on a fluorescein standard curve (FL diluted in saline 0.7% and 50 μl of normal serum as in the sample analysis).

Data set [7] relates to B16 cells. Nature of the data set: Growth in tissue culture of paclitaxel-treated B16 cells. Format: cell-based. To be noted: replated after treatment, 2 weeks in culture. How it is done: (§4) Cells (50000 cells per 50 μl injections) for a concentration of 10^6 cells per ml. The remaining of the test was performed as follows: • Cells from 1XT75 (80% confluence) are trypsinized with 2 ml trypsin, diluted in 12 ml media, spun down, rinsed once in 5 ml PBS, and resuspended in 2 ml PBS. Cells are then counted and concentration adjusted to 10^6 cells per ml. • P1 treatment: Add 200 μl P1 stock and […] of cell suspension (10^6 cells) and incubate at room temperature 3 hrs. Final Paclitaxel=1 mM, DMSO=1%. • P2 treatment: Add 200 μl P2 stock to 1.8 ml of cell suspension (10^6 cells) and incubate at room temperature 3 hrs. […] No growth was observed from either group after 2 weeks in culture.

Data set [8] concerns B16 cells. Nature of the data set: Intramuscular B16 tumor formation after i.m. injection of paclitaxel-treated cells. It is filed as in vivo. To be noted: mice with tumor / mice in group; cells treated 3 hrs before i.m. injection. How it is done:
as §4

Data set [9] can be described thus: Rhodamine 123 pharmacokinetic in rats, oral. It is filed as in vivo, Wistar female rats. To be noted: 5 mg/kg oral. How it is done:
The pharmacokinetic of Rhodamine 123 (R123) was performed on unfasten Wistar female rats of 200 g and 8 weeks of age. Rhodamine concentration is 5 mg/kg. […] Rhodamine is added to the latter solutions and vortexed. Formulations are fed to the animals with a canula and 200 μl blood samples are collected through the jugular vein every hour for 4 hours (plus 1 sample at 0.5 h). Plasma are collected immediately after centrifugation (10 min @ 13000 g). Plasma are frozen on dry ice until further analysis: 50 μl of plasma are diluted in 550 μl of saline 0.7% (w/v) and analyzed with a Varian Eclipse™ Spectrofluorometer (Excitation: 505 nm Emission: 540 nm). Concentrations were determined on a Rhodamine 123 standard curve (R123 diluted in saline 0.7% and 50 μl of normal serum as in the sample analysis).

Entries after “also recorded” stand apart in the source; their conditions may differ.

These results are taken from patent US8088605B2, “Exopolysaccharides delivery system for active molecules” (Technologies Biolactics Inc., priority 2002, dated 2012).

As for `O=c1[nH]cc(F)c(=O)[nH]1` [5-Fu alone, 5-Fluorouracil], the “Survival of Caco-2 cells differentiated” value in data set [1] (5-Fu 1 μg/ml) came out at 105.7 ± 4.2; in [1] (5-Fu 10 μg/ml), 85.6 ± 8.8; in data set [1] (5-Fu 50 μg/ml) it was 99.6 ± 6.8; in data set [1] (5-Fu 100 μg/ml), 78.1 ± 0.7. Moreover, the “Survival of B16F10 cells” value in data set [2] (5-Fu 1 μg/ml) worked out at 62.6 ± 6.6; in data set [2] (5-Fu 10 μg/ml) it was 65.4 ± 10.4; in data set [2] (5-Fu 50 μg/ml), 54.9 ± 8.9; in data set [2] (5-Fu 100 μg/ml), 38.8 ± 8.5. The Tumor-free mice in the data set on B16 cells [3] (day 0) is listed as 100%; in the data set on B16 cells [3] (day 15, 5 FU 100 mg/kg, EPS 0.1% w/v, treatment after 4 days), 62.5%; with B16 cells [3] (day 29, 5 FU 100 mg/kg, EPS 0.1% w/v, treatment after 4 days), 12.5%; in the data set with B16 cells [3] (day 44, 5 FU 100 mg/kg, EPS 0.1% w/v, treatment after 4 days), 12.5%. Further, the “Survival of Caco-2 cells in proliferation” value in data set [4] (5-Fu 1 μg/ml) amounted to 74.1 ± 1.9; in data set [4] (5-Fu 10 μg/ml), 78.6 ± 2.4; in data set [4] (5-Fu 50 μg/ml) it was 80.3 ± 1.8; in [4] (5-Fu 100 μg/ml), 52.6 ± 4.8. The “Survival of IEC-6 cells” value turned out to be 16.9 ± 6.4 in [5] (Table 5, 5-Fu 5 μg/ml); 28.0 ± 4.6 in data set [5] (Table 5, 5-Fu 50 μg/ml); 35.4 ± 8.2 in data set [5] (Table 5, 5-Fu 250 μg/ml); 33.4 ± 3.5 in [5] (Table 5, 5-Fu 500 μg/ml); 78.0 ± 3.0 in data set [5] (Table 6, 5-Fu 1 μg/ml); 75.4 ± 2.9 in [5] (Table 6, 5-Fu 10 μg/ml). Besides, the “Survival of IEC-6 cells” value in data set [5] (Table 6, 5-Fu 50 μg/ml) came to 81.8 ± 2.1; in [5] (Table 6, 5-Fu 100 μg/ml), 80.2 ± 0.9.
On to `O=C1OC2(c3ccc(O)cc3Oc3cc(O)ccc32)c2ccccc21` [FL-Water, Fluorescein], for which the “Fluorescein concentration in plasma” value in data set [6] (time 0.0 h) came to 37.10; in data set [6] (time 0.5 h), 218.30; in [6] (time 1.0 h), 145.95; in [6] (time 1.5 h), 75.25; in [6] (time 2.0 h), 74.48; in data set [6] (time 2.5 h) it was 71.74. Moreover, the “Fluorescein concentration in plasma” value in data set [6] (time 3.5 h) worked out at 54.63.
Consider `CC(=O)O[C@H]1C(=O)[C@@]2(C)[C@H]([C@H](OC(=O)c3ccccc3)[C@]3(O)C[C@H](OC(=O)[C@H](O)[C@@H](NC(=O)c4ccccc4)c4ccccc4)C(C)=C1C3(C)C)[C@]1(OC(C)=O)CO[C@@H]1C[C@@H]2O` [P1, Paclitaxel], for which the “Growth in tissue culture” value in the data set on B16 cells [7] is listed as “No growth; also recorded: negative”. Moreover, the Intramuscular tumor formation with B16 cells [8] is 12/15.
Turning to Rhodamine 123 [R123 - Water], the “Rhodamine 123's concentration in plasma” value was found to be 2.2 ± 2.2 ng/mL in data set [9] (time 0.0 h); 20.4 ± 2.2 ng/mL in data set [9] (time 0.5 h); 20.9 ± 2.6 ng/mL in data set [9] (time 1.0 h); 15.4 ± 2.0 ng/mL in data set [9] (time 2.0 h); 10.9 ± 1.4 ng/mL in data set [9] (time 3.0 h); 11.2 ± 1.8 ng/mL in data set [9] (time 4.0 h).
